From PMC9596378, “Discovery and molecular basis of subtype-selective cyclophilin inhibitors” (Nature Chemical Biology, 2022)
Values joined by “and” are separate entries in the source; they are usually repeats but may differ in a detail not shown here. Equal values may be shown once. Read-outs that look alike come from different tables or passages of the source.

Assays:
CypC = molecular target: T1, CypC (Homo sapiens, UniProt P45877); assay: Chymotrypsin coupled prolyl-isomerase assay; format: biochemical; conditions: for prolyl-isomerase activity (raw dose-response value): CypC, in s^-1
T1 construct: PPIC (UniProtKB Entry P45877: residues 24–212); host or cells: E. coli BL21(DE3)
Procedure, shortened: (§1)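 Recombinant cyclophilin (5 nM final) in 25 mM HEPES pH 7.3, 100 mM NaCl, 0.01% Triton X-100 was preincubated with compound at 2–3 °C. It was then coupled with 25 µM α-chymotrypsin and 5 µM Suc-AAPF-AMC (LiCl/TFE), and AMC fluorescence was followed for 330 s.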

CypE = molecular target: T2, CypE (Homo sapiens, UniProt Q9UNP9); assay: Chymotrypsin coupled prolyl-isomerase assay; format: biochemical; conditions: for prolyl-isomerase activity (raw dose-response value): CypE, in s^-1
T2 construct: PPIE (UniProtKB Entry Q9UNP9: residues 131–301); host or cells: E. coli BL21(DE3)
Procedure, shortened: as §1

CypB = molecular target: T3, CypB (Homo sapiens, UniProt P23284); assay: biochemical; conditions: for prolyl-isomerase activity (raw dose-response value): CypB
T3 construct: PPIB (UniProtKB Entry P23284: residues 34–216); His6 with TEV site (2BT vector leader) (N); made in house; host or cells: E. coli BL21(DE3)
Procedure, shortened: as §1

Cyp40 = Cyp40 (Homo sapiens, UniProt Q08752); assay: Chymotrypsin coupled prolyl-isomerase assay; conditions: for prolyl-isomerase activity (raw dose-response value): in s^-1
Procedure, shortened: as §1

NKTR = molecular target: T4, NKTR (Homo sapiens, UniProt P30414); assay: Chymotrypsin coupled prolyl-isomerase assay; format: biochemical; conditions: for prolyl-isomerase activity (raw dose-response value): NKTR
T4 construct: NKTR (UniProtKB Entry P30414: residues 7–179); host or cells: E. coli BL21(DE3)
T4 sequence (P30414 7-179): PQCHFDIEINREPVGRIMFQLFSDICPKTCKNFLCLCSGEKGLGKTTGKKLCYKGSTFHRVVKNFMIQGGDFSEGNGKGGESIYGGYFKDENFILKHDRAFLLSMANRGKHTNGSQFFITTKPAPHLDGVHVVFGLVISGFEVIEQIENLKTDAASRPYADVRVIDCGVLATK

T2 sequence (Q9UNP9 131-301): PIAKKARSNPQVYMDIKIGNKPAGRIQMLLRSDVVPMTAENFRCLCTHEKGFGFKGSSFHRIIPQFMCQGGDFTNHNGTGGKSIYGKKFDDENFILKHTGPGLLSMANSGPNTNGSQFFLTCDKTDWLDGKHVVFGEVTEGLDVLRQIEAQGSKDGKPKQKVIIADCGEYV
T3 sequence (P23284 34-216): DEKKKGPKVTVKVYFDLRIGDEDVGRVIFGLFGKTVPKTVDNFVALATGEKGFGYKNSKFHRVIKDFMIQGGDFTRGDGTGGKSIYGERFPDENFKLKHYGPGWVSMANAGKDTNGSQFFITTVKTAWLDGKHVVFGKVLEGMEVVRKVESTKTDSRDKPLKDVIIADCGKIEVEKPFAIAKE
Cyp40, sequence (Q08752 1-183): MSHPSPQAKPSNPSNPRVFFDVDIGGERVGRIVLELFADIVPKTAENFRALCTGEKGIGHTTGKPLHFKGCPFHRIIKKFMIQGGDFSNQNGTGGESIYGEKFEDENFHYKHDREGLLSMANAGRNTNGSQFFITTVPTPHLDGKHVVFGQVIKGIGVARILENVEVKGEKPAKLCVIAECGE
T1 sequence (P45877 24-212): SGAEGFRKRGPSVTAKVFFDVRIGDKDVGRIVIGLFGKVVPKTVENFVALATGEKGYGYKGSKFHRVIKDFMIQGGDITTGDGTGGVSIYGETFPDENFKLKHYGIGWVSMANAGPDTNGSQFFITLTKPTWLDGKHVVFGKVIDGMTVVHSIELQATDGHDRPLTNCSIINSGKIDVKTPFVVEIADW

Structure (SMILES): NCCOCCNC(=O)[C@@H]1CCNC(=O)/C=C/C(=O)N2CCC[C@](Cc3ccccc3)(C2)C(=O)N[C@@H](Cc2ccc(-c3ccccc3)cc2)C(=O)NCc2ccccc2CC(=O)N1 [Compound B2]
- prolyl-isomerase activity (raw dose-response value) (CypC; dose 0.00976562 µM): 0.05723 and 0.05806 and 0.05564
- prolyl-isomerase activity (raw dose-response value) (CypC; dose 0.0195312 µM): 0.05812 and 0.0569 and 0.05659
- prolyl-isomerase activity (raw dose-response value) (CypC; dose 0.0390625 µM): 0.05511 and 0.05318 and 0.05171
- prolyl-isomerase activity (raw dose-response value) (CypC; dose 0.078125 µM): 0.04827 and 0.04606 and 0.04304
- prolyl-isomerase activity (raw dose-response value) (CypC; dose 0.15625 µM): 0.04287 and 0.04429 and 0.04035
- prolyl-isomerase activity (raw dose-response value) (CypC; dose 0.3125 µM): 0.03472 and 0.03475 and 0.034
- prolyl-isomerase activity (raw dose-response value) (CypC; dose 0.625 µM): 0.02805 and 0.0282 and 0.0272
- prolyl-isomerase activity (raw dose-response value) (CypC; dose 1.25 µM): 0.02258 and 0.02214 and 0.02094
- prolyl-isomerase activity (raw dose-response value) (CypC; dose 2.5 µM): 0.01704 and 0.018 and 0.01642
- prolyl-isomerase activity (raw dose-response value) (CypC; dose 5 µM): 0.01304 and 0.01485 and 0.01185
- prolyl-isomerase activity (raw dose-response value) (CypC; dose 10 µM): 0.009494 and 0.009626 and 0.009002
- IC50 (CypC; wild-type CypC, read-out: Wild-Type Cyclophilin Prolyl Isomerase Inhibition IC50 Values, CypC): 380 nM
- prolyl-isomerase activity (raw dose-response value) (CypE; dose 0.00976562 µM): 0.1022 and 0.09371 and 0.09482
- prolyl-isomerase activity (raw dose-response value) (CypE; dose 0.0195312 µM): 0.1041 and 0.09004 and 0.09109
- prolyl-isomerase activity (raw dose-response value) (CypE; dose 0.0390625 µM): 0.08953 and 0.08464 and 0.08549
- prolyl-isomerase activity (raw dose-response value) (CypE; dose 0.078125 µM): 0.08163 and 0.08105 and 0.08006
- prolyl-isomerase activity (raw dose-response value) (CypE; dose 0.15625 µM): 0.07541 and 0.07108 and 0.06602
- prolyl-isomerase activity (raw dose-response value) (CypE; dose 0.3125 µM): 0.0578 and 0.05386 and 0.0523
- prolyl-isomerase activity (raw dose-response value) (CypE; dose 0.625 µM): 0.04345 and 0.04205 and 0.03853
- prolyl-isomerase activity (raw dose-response value) (CypE; dose 1.25 µM): 0.03208 and 0.02851 and 0.02629
- prolyl-isomerase activity (raw dose-response value) (CypE; dose 2.5 µM): 0.02324 and 0.0218 and 0.01925
- prolyl-isomerase activity (raw dose-response value) (CypE; dose 5 µM): 0.01397 and 0.01461 and 0.01313
- prolyl-isomerase activity (raw dose-response value) (CypE; dose 10 µM): 0.008566 and 0.009565 and 0.009677
- IC50 (CypE; wild-type CypE, read-out: Wild-Type Cyclophilin Prolyl Isomerase Inhibition IC50 Values, CypE): 300 nM
- prolyl-isomerase activity (raw dose-response value) (CypB; dose 0.00457247 µM): 0.09192 and 0.1036 and 0.1252
- prolyl-isomerase activity (raw dose-response value) (CypB; dose 0.0137174 µM): 0.09377 and 0.09227 and 0.1138
- prolyl-isomerase activity (raw dose-response value) (CypB; dose 0.0411523 µM): 0.08535 and 0.07571 and 0.07363
- prolyl-isomerase activity (raw dose-response value) (CypB; dose 0.123457 µM): 0.076 and 0.06873 and 0.07349
- prolyl-isomerase activity (raw dose-response value) (CypB; dose 0.37037 µM): 0.05318 and 0.03953 and 0.04525
- prolyl-isomerase activity (raw dose-response value) (CypB; dose 1.11111 µM): 0.03174 and 0.02714 and 0.02735
- prolyl-isomerase activity (raw dose-response value) (CypB; dose 3.33333 µM): 0.02002 and 0.01837 and 0.01843
- prolyl-isomerase activity (raw dose-response value) (CypB; dose 10 µM): 0.01579 and 0.01529 and 0.01363
- IC50 (CypB; wild-type CypB, read-out: Wild-Type Cyclophilin Prolyl Isomerase Inhibition IC50 Values, CypB): 160 nM
- prolyl-isomerase activity (raw dose-response value) (Cyp40; Cyp40, dose 0.0228624 µM): 0.06439 and 0.06966 and 0.09224
- prolyl-isomerase activity (raw dose-response value) (Cyp40; Cyp40, dose 0.0685871 µM): 0.06672 and 0.05591 and 0.0674
- prolyl-isomerase activity (raw dose-response value) (Cyp40; Cyp40, dose 0.205761 µM): 0.05415 and 0.04361 and 0.05573
- prolyl-isomerase activity (raw dose-response value) (Cyp40; Cyp40, dose 0.617284 µM): 0.04036 and 0.03584 and 0.03686
- prolyl-isomerase activity (raw dose-response value) (Cyp40; Cyp40, dose 1.85185 µM): 0.02841 and 0.02381 and 0.02316
- prolyl-isomerase activity (raw dose-response value) (Cyp40; Cyp40, dose 5.55556 µM): 0.01852 and 0.01638 and 0.01429
- prolyl-isomerase activity (raw dose-response value) (Cyp40; Cyp40, dose 16.6667 µM): 0.0159 and 0.01466 and 0.0158
- prolyl-isomerase activity (raw dose-response value) (Cyp40; Cyp40, dose 50 µM): 0.01447 and 0.01343 and 0.01173
- IC50 (Cyp40; Wild-Type Cyclophilin Prolyl Isomerase Inhibition IC50 Values, Cyp40, wild-type Cyp40): 260 nM
- prolyl-isomerase activity (raw dose-response value) (NKTR; dose 0.0457247 µM): 0.03158 and 0.03033 and 0.03469
- prolyl-isomerase activity (raw dose-response value) (NKTR; dose 0.137174 µM): 0.03164 and 0.03314 and 0.03312
- prolyl-isomerase activity (raw dose-response value) (NKTR; dose 0.411523 µM): 0.0325 and 0.0338 and 0.02719
- prolyl-isomerase activity (raw dose-response value) (NKTR; dose 1.23457 µM): 0.03372 and 0.0315 and 0.03341
- prolyl-isomerase activity (raw dose-response value) (NKTR; dose 3.7037 µM): 0.03071 and 0.03218 and 0.03337
- prolyl-isomerase activity (raw dose-response value) (NKTR; dose 11.1111 µM): 0.03272 and 0.0287 and 0.03154
- prolyl-isomerase activity (raw dose-response value) (NKTR; dose 33.3333 µM): 0.034 and 0.032 and 0.03
- prolyl-isomerase activity (raw dose-response value) (NKTR; dose 100 µM): 0.0243 and 0.0254 and 0.02366
- IC50 (NKTR; prolyl-isomerase inhibition, 5 nM cyclophilin, read-out: IC50 NKTR): ~100000 nM
- IC50 (NKTR; wild-type NKTR, read-out: Wild-Type Cyclophilin Prolyl Isomerase Inhibition IC50 Values, NKTR): 100000 nM
